Results published in patent US9198907B2, “Combinations of a HCV inhibitor such as bicyclic pyrrole derivatives and a therapeutic agent” (PTC Therapeutics, Inc., priority 2009, dated 2015).

Tested on: HCV replicon RNA in replicon cells
Experiment: Replicon RNA response to antiviral agent(s), replicon RNA level by real time PCR (Taqman assay)
Format: cell-based
Method: Replicon cells were seeded at ˜5000 cells/well in 96-well collagen I-coated Biocoat plates (Becton Dickinson). At 24 hrs post-seeding, a series of replicon cells were treated with a HCV protease inhibitor and a HCV inhibitor. The final concentration of DMSO was 0.5%, fetal bovine serum was 10%, and G418 (an aminoglycoside used as a selective agent) was 500 μg/mL.
To each concentration of Compound 10p, HCV inhibitor Compound 22 was titrated. After 3 days, the cells were washed with PBS and lysed in 1× Cell Lysis Buffer (Ambion cat #8721).
The replicon RNA level was measured using real time PCR (Taqman assay). The ampicon was located in NS5b. The PCR primers used were: 5B.2F, ATGGACAGGCGCCCTGA (SEQ ID NO: 1); 5B.2R, […] (SEQ ID NO: 2); the probe sequence was FAM-labeled CACGCCATGCGCTGCGG (SEQ ID NO: 3). GAPDH RNA was used as endogenous control and was amplified in the same reaction as NS5b (multiplex PCR) using primers and VIC-labeled probe recommended by the manufacturer (PE Applied Biosystem). The real-time RT-PCR reactions were run on ABI PRISM 7900HT Sequence Detection System using the following program: 48° C. for 30 min, 95° C. for 10 min, 40 cycles of 95° C. for 15 sec, 60° C. for 1 min. The ΔCT values (CT5B-CTGAPDH) were plotted against test compound concentration and fitted to the sigmoid dose response model using Graphpad PRISM software (Graphpad Software Inc.). The half maximal inhibitory concentration (IC50) is the concentration necessary to achieve ΔCT=1 over the projected baseline. The 90% maximal inhibitory concentration (IC90) is the concentration necessary to achieve ΔCT=3.2 over the baseline. Alternatively, to quantitate the absolute amount of replicon RNA, a standard curve was established by including serially diluted T7 transcripts of replicon RNA in the Taqman assay. All Taqman reagents were from PE Applied Biosystem.

Row | SMILES | relative inhibition (logarithmic scale) of replicon RNA (Cpd 10p 0.15 μM, Compound 22 0 μM, replicon cells treated 3 days) | relative inhibition (logarithmic scale) of replicon RNA (Cpd 10p 1.2 μM, Compound 22 0 μM, replicon cells treated 3 days) | relative inhibition (logarithmic scale) of replicon RNA (combination: Compound 22 0.045 μM + Cpd 10p 0.15 μM, 3 days) | relative inhibition (logarithmic scale) of replicon RNA (combination: Compound 22 0.045 μM + Cpd 10p 1.2 μM, 3 days) | relative inhibition (logarithmic scale) of replicon RNA (combination: Compound 22 0.405 μM + Cpd 10p 0.15 μM, 3 days) | relative inhibition (logarithmic scale) of replicon RNA (combination: Compound 22 0.405 μM + Cpd 10p 1.2 μM, 3 days)
1 | CC(C)(C)NC(=O)N[C@H](C(=O)N1C[C@H]2[C@@H]([C@H]1C(=O)NC(CC1CCC1)C(=O)C(N)=O)C2(C)C)C(C)(C)C (stereo partly drawn) [Cpd 10p, (1R,2S,5S)-N-(4-amino-1-cyclobutyl-3,4-dioxobutan-2-yl)-3-((S)-2-(3-tert-butylureido)-3,3-dimethylbutanoyl)-6,6-dimethyl-3-azabicyclo[3.1.0]hexane-2-carboxamide, reference compound] | −0.74 | −1.72 | – | – | – | –
2 | COc1cnc2c(c1)c(C#N)c(-c1ccc(S(=O)(=O)N[C@@H](C)C(F)(F)F)cn1)n2C1CCC1 [Cpd 22, 6-(3-cyano-1-cyclobutyl-5-methoxy-1H-pyrrolo[2,3-b]pyridin-2-yl)-N-[(2S)-1,1,1-trifluoropropan-2-yl]pyridine-3-sulfonamide] | – | – | −1.09 | −1.77 | −1.45 | −1.91
